In general, inhibition refers to the change of the read-out against control, counted positive when it falls.

One assay concerns NF-κB p65 subunit. In words: NF-κB p65 nuclear translocation in LPS-stimulated J774A.1 cells (IFI). The conditions noted are these: J774A.1 induced with LPS 8 h, 40 μM (LPS only 79.4±1.2). The assay is classed as cell-based, murine. The method, then: J774A.1 cells were grown on coverslips in 24-well plates and stimulated with 100 ng/ml LPS (Sigma) in RPMI without SFB, for 8 h at 37° C.
After incubation, cells were fixed in methanol at −20° C. for 10 min, and processed for indirect immunofluorescence (IFI) with antibodies directed against the glycoprotein D (gD) of HSV-1 and/or the p65 subunit of NF-κB. After three washes with PBS, the coverslips were inverted on a drop of a 1/100 dilution of the first antibody, mouse monoclonal anti-gD and/or rabbit polyclonal anti p65 (Santa Cruz Biotechnology) and incubated for 30 min at 37° C., and then subjected to three additional washes with PBS. […]
The images obtained with a 40× magnification were imported into NIH Image J 1.34s program (designed by Wayne Rasband, NIMH, Bethesda). […] We analyzed the total and nuclear fluorescence of the individual cells and a mean fluorescence density was obtained for each. To compare the distribution of fluorescence within the cell, the results were analyzed in a spreadsheet (Excel®). The total fluorescence intensity or nuclear density was calculated as the total or nuclear average per total or nuclear area, respectively. Then, we calculated the percentage of nuclear intensity or the percentage of nuclear intensity with respect to the total intensity for each cell. […]

The subject of another assay is IL-6. In words: IL-6 secretion in epithelial cells (ELISA). The assay is classed as cell-based, human. On the technique in general: ELISA stands for enzyme-linked immunosorbent assay.
The next assay has as its system HUVECs. Kind of assay: Cell invasion assay (transwell, IL-6 stimulated). As to conditions: Homo sapiens, HUVEC, 100 ng/ml IL-6, 24 h, read-out: inhibition of HUVECs invasion through the filter. The assay is classed as cell-based. The method, then: HUVECs' invasion was evaluated using 24-well transwell cell culture chambers with 8 μm pore polycarbonate filter inserts. Cultured HUVECs were trypsinized and suspended in Medium 200 supplemented with LSGS at a concentration of 8×10^5 cells/ml. A total of 4×10^4 of cell suspension was applied to insert filters. We used 100 ng/ml of IL-6 to stimulate cell migration through the inserts. For that, we dispensed 600 μl of medium alone or with the stimulus in the lower chamber, which was then incubated for 24 h at 37° C. to allow cell migration. The insert was removed and migrated cells on the wells were fixed and stained with crystal violet. The wells were examined under a microscope. Migration was quantified by measuring the total stained cells in every well.

Assay [1] concerns HCLE cells infected with HSV-1. In words: Microarray gene expression in HCLE cells infected with HSV-1. The assay is classed as cell-based, human. The conditions noted are these: HCLE infected with HSV-1 (m.o.i.=1), 40 μM, 6 h, vs infected untreated. The procedure: HSV-1 infected cells and LPS stimulated cells were transcriptionally analyzed by using the whole human genome microarray and whole mouse genome microarray (Agilent Technologies, Santa Clara, Calif.), corresponding to 41,000 human or mice genes and transcripts.
RNA was extracted with chloroform/isopropanol and purified from Trizol.
cDNA synthesis, amplification and labeling of cRNA was performed, following the protocol of two colors of Agilent. Cyanine: 3-CTP and 5-CTP labeled cRNA was prepared from purified RNA (Two-Color Microarray-Based Gene Expression Analysis—Quick Amp Labeling, Agilent). Labeled cRNA was purified, quantified and the efficiency of labeling determined.
After that, we proceeded with the hybridization, washing, assembling of the chips and scanning. […] The fluorescence intensity data obtained for each chip were analyzed using GeneSpring XG11 and Multi Experiment Viewer (MeV) programs. […]
We used the commercial software Agilent Feature Extraction for quality control of the scan. The software converts the scanned images produced in quantitative data for further analysis. […] On the one hand, it performs an analysis of the image to locate the grid on the chip and in it, the spots for each gene, and on the other hand, it makes an analysis of data, to define and measure information (fluorescence intensity) of each spot, for the analysis of gene expression. […]

Another assay has as its system TNF-α. Kind of assay: TNF-α secretion in LPS-activated macrophages. The assay is classed as cell-based. The conditions noted are these: Macrophage, read-out: inhibitory concentration 50% (IC50), TNF-α secretion.

Take `CC[C@@H](C(C)C)[C@H](O)[C@@H](O)[C@@H](C)[C@H]1CC[C@H]2[C@@H]3CCC4=CC(=O)CC[C@]4(C)[C@H]3CC[C@]12C` [Compound 1, (22S,23S)-22,23-dihydroxystigmast-4-en-3-one]: in the assay on NF-κB p65 subunit, the “percentage of cells positive for NF-κB translocation to the nucleus” value was determined as 87.9±0.2%. The IL-6 release result is given as “did not elicit any change” with IL-6 (HSV-1 infected HCLE cells, 40 μM, 24 h, vs infected control); “did not elicit any change” in the assay on IL-6 (HSV-1 infected IOBA-NHC cells, 40 μM, 24 h, vs infected control); “did not induce IL-6 release by itself” with IL-6 (uninfected treated cells, compound alone). Also, the inhibition at 10 µM with HUVECs (10 μM) is 18.4%. Also, the inhibition at 20 µM with HUVECs (20 μM) was 26.1%. In addition, in the assay with HUVECs (40 μM), the inhibition at 40 µM was 67.5%. Moreover, in assay [1], the “expression of IL-1α, IL-8 and CXCL-2” value is on record as “overexpression”. The “expression of macrophage colony stimulating factor (CSF-2)” value in assay [1] was “overexpression”. Moreover, in the assay with TNF-α, the IC50 was 7 µM.

(Values after patent US9187518B2, “Antiangiogenic brassinosteroid compounds” (CONSEJO NACIONAL DE INVESTIGACIONES CIENTIFICAS Y TECNICAS …, priority 2011, dated 2015).)
